Measured values from patent publication US20180186742A1, “PICOLINAMIDES AS FUNGICIDES” (Dow AgroSciences LLC, priority 2017, published 2018).
Read-outs that look alike come from different tables or passages of the source.

Key:
Format in all cases: in vivo
[1] = system: Alternaria solani; experiment: Tomato early blight (ALTESO), disease control on tomato plants; details: 1DP test at 100 ppm, read-out: ALTESO disease control rating
Description: Technical grades of materials were dissolved in acetone, which were then mixed with nine volumes of water containing 110 ppm Triton X-100. The fungicide solutions were applied onto wheat seedlings using an automated booth sprayer to run-off. All sprayed plants were allowed to air dry prior to further handling. All fungicides were evaluated using the aforementioned method for their activity vs. all target diseases, unless stated otherwise. Wheat leaf blotch and brown rust activity were also evaluated using track spray applications, in which case the fungicides were formulated as EC formulations, containing 0.1% Trycol 5941 in the spray solutions. Tomato plants (variety Outdoor Girl) were propagated in soil-less Metro mix, with each pot having one plant, and used when 12 to 14 days old. Test plants were inoculated with an aqueous spore suspension of Alternaria solani 24 hr after fungicide treatments. After inoculation the plants were kept in 100% relative humidity (one day in a dark dew chamber followed by two to three days in a lighted dew chamber at 20° C.) to permit spores to germinate and infect the leaf. The plants were then transferred to a growth room at 22° C. for disease to develop. Fungicide formulation, application and disease assessment on the sprayed leaves followed the procedures as described in the Example A.

[2] = system: Rhyncosporium secalis; experiment: Barley scald (RHYNSE), disease control on barley seedlings; details: Hordeum vulgare, 24 h, 1DP (1 Day Protectant) test at 100 ppm
Description: Technical grades of materials were dissolved in acetone, which were then mixed with nine volumes of water containing 110 ppm Triton X-100. The fungicide solutions were applied onto wheat seedlings using an automated booth sprayer to run-off. All sprayed plants were allowed to air dry prior to further handling. All fungicides were evaluated using the aforementioned method for their activity vs. all target diseases, unless stated otherwise. Wheat leaf blotch and brown rust activity were also evaluated using track spray applications, in which case the fungicides were formulated as EC formulations, containing 0.1% Trycol 5941 in the spray solutions. Barley seedlings (variety Harrington) were propagated in soil-less Metro mix, with each pot having 8 to 12 plants, and used in the test when first leaf was fully emerged. Test plants were inoculated by an aqueous spore suspension of Rhyncosporium secalis 24 hr after fungicide treatments. After inoculation the plants were kept in a dew room at 20° C. with 100% relative humidity for 48 hr. The plants were then transferred to a greenhouse set at 20° C. for disease to develop. Fungicide formulation, application and disease assessment on the sprayed leaves followed the procedures as described in the Example A.

[3] = system: Puccinia triticina; experiment: Wheat brown rust (PUCCRT), disease control on wheat seedlings; details: low volume application at 121.5 g/H
Method in brief: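 Compounds in acetone, diluted with nine volumes of water containing 110 ppm Triton X-100, sprayed to run-off on first-leaf Yuma wheat seedlings; track-spray tests used EC formulations with 0.1% Trycol 5941. Puccinia triticina spores applied before or after treatment. Overnight dark dew room at 22° C, 100% humidity, then greenhouse at 24° C.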

[4] = system: Zymoseptoria tritici; experiment: Leaf blotch of wheat (SEPTTR), disease control on wheat seedlings; details: low volume application at 121.5 g/H
Method in brief: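 Yuma wheat seedlings with the first leaf fully emerged were sprayed to run-off with compound in acetone plus nine volumes of water containing 110 ppm Triton X-100; track-spray tests used EC formulations with 0.1% Trycol 5941. Z. tritici inoculation came before or after treatment, followed by 100% RH dew periods and a 20 °C greenhouse. Percent control was calculated from severity versus untreated plants.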

[5] = system: Cercospora beticola; experiment: Leaf spot of sugar beets (CERCBE), disease control on sugar beet plants; details: 1DP test at 100 ppm, read-out: CERCBE disease control rating
Description: Technical grades of materials were dissolved in acetone, which were then mixed with nine volumes of water containing 110 ppm Triton X-100. The fungicide solutions were applied onto wheat seedlings using an automated booth sprayer to run-off. All sprayed plants were allowed to air dry prior to further handling. All fungicides were evaluated using the aforementioned method for their activity vs. all target diseases, unless stated otherwise. Wheat leaf blotch and brown rust activity were also evaluated using track spray applications, in which case the fungicides were formulated as EC formulations, containing 0.1% Trycol 5941 in the spray solutions. Sugar beet plants (variety HH88) were grown in soil-less Metro mix and trimmed regularly to maintain a uniform plant size prior to test. Plants were inoculated with a spore suspension 24 hr after fungicide treatments. Inoculated plants were kept in a dew chamber at 22° C. for 48 hr then incubated in a greenhouse set at 24° C. under a clear plastic hood with bottom ventilation until disease symptoms were fully expressed. Fungicide formulation, application and disease assessment on the sprayed leaves followed the procedures as described in the Example A.

[6] = system: Magnaporthe grisea; Anamorph: Pyricularia oryzae; experiment: whole plant or invertebrate; details: 24 h, read-out: PYRIOR Disease Control
[7] = 24 h, 1 Day Protectant, wheat brown rust, read-out: PUCCRT 1DP disease control, LV activity
[8] = 72 h, 3 Day Curative, wheat brown rust, read-out: PUCCRT 3DC disease control, LV activity
[9] = 24 h, 1 Day Protectant, wheat leaf blotch, read-out: SEPTTR 1DP disease control, LV activity
[10] = 72 h, 3 Day Curative, wheat leaf blotch, read-out: SEPTTR 3DC disease control, LV activity
[11] = 24 h, 1 Day Protectant, read-out: PUCCRT disease control, 1DP, LV activity
[12] = 72 h, 3 Day Curative, read-out: PUCCRT disease control, 3DC, LV activity
[13] = 24 h, 1 Day Protectant, read-out: SEPTTR disease control, 1DP, LV activity
[14] = 72 h, 3 Day Curative, read-out: SEPTTR disease control, 3DC, LV activity

SMILES | pest or weed control at 100 ppm [1] [%] | pest or weed control at 100 ppm [2] [%] | pest or weed control at 121.5 g/ha [3, 7] [%] | pest or weed control at 121.5 g/ha [3, 8] [%] | pest or weed control at 121.5 g/ha [4, 9] [%] | pest or weed control at 121.5 g/ha [4, 10] [%] | pest or weed control at 100 ppm [5] [%] | pest or weed control at 100 ppm [6] [%] | pest or weed control at 121.5 g/ha [3, 11] [%] | pest or weed control at 121.5 g/ha [3, 12] [%] | pest or weed control at 121.5 g/ha [4, 13] [%] | pest or weed control at 121.5 g/ha [4, 14] [%]
COc1ccnc(C(=O)N[C@@H](C)C(=O)O[C@@H](C)[C@H](c2ccccc2C)C(C)C)c1OC(C)=O [Compound 364] | < 80 | < 80 | > 80 | < 80 | < 80 | < 80 | > 80 | > 80 | – | – | – | –
CCC(CC)[C@@H](c1ccc(F)cc1C)[C@H](C)OC(=O)[C@H](C)NC(=O)c1nccc(OC)c1OC(C)=O [Compound 187] | < 80 | > 80 | – | – | – | – | > 80 | > 80 | > 80 | < 80 | > 80 | > 80
COc1ccnc(C(=S)N[C@@H](C)C(=O)O[C@@H](C)[C@H](c2ccc(F)cc2C)C(C)C)c1OC(C)=O [Compound 219] | < 80 | < 80 | – | – | – | – | > 80 | > 80 | > 80 | > 80 | < 80 | > 80
COc1ccnc(C(=O)N[C@@H](C)C(=O)O[C@@H](C)[C@H](c2ccc(F)cc2C)C(C)C)c1OC(=O)C(C)C [Compound 216] | < 80 | < 80 | – | – | – | – | > 80 | > 80 | > 80 | > 80 | > 80 | > 80
CCC(C)C(=O)Oc1c(OC)ccnc1C(=O)N[C@@H](C)C(=O)O[C@@H](C)[C@H](c1ccc(F)cc1C)C(C)C (stereo partly shown) [Compound 355] | > 80 | < 80 | – | – | – | – | > 80 | < 80 | > 80 | < 80 | > 80 | > 80
CCOC(=O)Oc1c(OC)ccnc1C(=O)N(C(=O)OCC)[C@@H](C)C(=O)O[C@@H](C)[C@H](c1ccc(F)cc1C)C(C)C [Compound 371] | < 80 | < 80 | – | – | – | – | > 80 | < 80 | – | – | – | –
COc1ccnc(C(=O)N[C@@H](C)C(=O)O[C@@H](C)[C@H](c2ccc(F)cc2C)C(C)C)c1OC(=O)OC(C)C [Compound 373] | < 80 | < 80 | > 80 | < 80 | > 80 | > 80 | > 80 | < 80 | – | – | – | –
COc1ccnc2c(=O)n([C@@H](C)C(=O)O[C@@H](C)[C@H](c3ccc(F)cc3C)C(C)C)c(=O)oc12 [Compound 217] | < 80 | < 80 | – | – | – | – | > 80 | > 80 | > 80 | > 80 | > 80 | > 80
COCCC(=O)Oc1c(OC)ccnc1C(=O)N[C@@H](C)C(=O)O[C@@H](C)[C@H](c1ccc(F)cc1C)C(C)C [Compound 220] | < 80 | < 80 | – | – | – | – | > 80 | > 80 | > 80 | > 80 | > 80 | > 80
COc1ccnc(C(=O)N[C@@H](C)C(=O)O[C@@H](C)[C@H](c2ccc(F)cc2C)C(C)C)c1OC(=O)C(C)(C)C [Compound 374] | < 80 | < 80 | > 80 | < 80 | > 80 | > 80 | > 80 | < 80 | – | – | – | –
COc1ccnc(C(=O)N[C@@H](C)C(=O)O[C@@H](C)[C@H](c2ccccc2C)C(C)C)c1OC(=O)C(C)C [Compound 375] | < 80 | < 80 | > 80 | > 80 | < 80 | > 80 | > 80 | > 80 | – | – | – | –
COc1ccnc(C(=O)N[C@@H](C)C(=O)O[C@@H](C)[C@H](c2cccc(C)c2C)C(C)C)c1OC(C)=O [Compound 363] | < 0 | < 80 | – | – | – | – | > 80 | > 80 | > 80 | > 80 | < 80 | < 80
COc1ccnc(C(=O)N[C@@H](C)C(=O)O[C@@H](C)[C@H](c2ccc(F)cc2C)C(C)C)c1OC(=O)C1CCCC1 [Compound 354] | < 80 | < 80 | – | – | – | – | > 80 | < 80 | > 80 | < 80 | > 80 | > 80
CCC(=O)Oc1c(OC)ccnc1C(=O)N[C@@H](C)C(=O)O[C@@H](C)[C@H](c1ccc(F)cc1C)C(C)C [Compound 357] | < 80 | < 80 | – | – | – | – | > 80 | < 80 | > 80 | > 80 | > 80 | > 80
CCOC(=O)Oc1c(OC)ccnc1C(=O)N[C@@H](C)C(=O)O[C@@H](C)[C@H](c1ccc(F)cc1C)C(C)C [Compound 372] | > 80 | < 80 | – | – | – | – | > 80 | < 80 | – | – | – | –
